“Also recorded” adds a separate entry of the source.

We go through one molecule from US20240358727A1, “MICROSCALE THERMOPHORESIS TO EVALUATE CHANNEL LIPID INTERACTIONS AND METHODS OF TREATING NAV CHANNELS RELATED DISEASES” (Northeastern University, priority 2023, published 2024).

One assay addresses T1, WT-Nav1.5 (Homo sapiens, UniProt Q14524).
T1 construct: expressed in transfected cells; host or cells: HEK293T
The assay can be described thus: Whole-cell patch-clamp ILATE of wild type Nav1.5 in HEK293T cells with CRY2-5POCRL. It counts as cell-based. Particulars: diC8-PIP2 in pipette. On the procedure:
This is opposed when by 200 μM diC8-PIP2 in the pipette. Comparisons are Students t-test, *** P<0.01, ****P0.001 for 4-6 cells per group.
Results. Our studies were designed to evaluate PIP2-regulation for Nav1.5 channelopathies from multiple perspectives. Given that there is a lack of structural data to identify where, or how many PIP2 molecules bind to Nav1.5, we performed a docking simulation to identify putative PIP2 binding sites in the open, rat and human Nav1.5 cryoEM structures (PDB: 6UZ3 and 7DTC) (56-58). We observed four potential PIP2 binding sites at the boundary between the inner leaflet of the membrane and the cytoplasm with one at the interface between each voltage sensor and the channel body. In each case, we noted electrostatic and hydrogen bond interactions between the headgroup of PIP2 and multiple disease associated residues. Among these, we elected to perform functional studies on Nav1.5-R1644C, an LQT3 mutant located between the S4 and S5 transmembrane segments of DIV. We expressed wild type Nav1.5 or Nav1.5-R1644C with Nav1β, CIBN-CAAX and CRY2-5POCRL in HEK293T cells and studied ILATE with and without optogenetic dephosphorylation of PIP2. In wild-type Nav1.5, ILATE was 0.25±0.1% of the peak (n=8) whereas in Nav1.5-R1664C, ILATE was 1.2±0.2% of peak (n=8, P<0.01, unpaired t-test comparison to WT). […]
(In general: Patch clamp records ionic current or voltage across a cell membrane.)

Assay [1] deals with T2, Nav1.5 channel currents (INa, ILATE) in M3q iPS-CMs (Homo sapiens, UniProt Q14524).
T2 construct: host or cells: human iCell^2 iPS cardiomyocytes (transfected with M3q DREADD in A5; endogenous AT1 receptor in A7)
T2 sequence (Q14524 whole entry): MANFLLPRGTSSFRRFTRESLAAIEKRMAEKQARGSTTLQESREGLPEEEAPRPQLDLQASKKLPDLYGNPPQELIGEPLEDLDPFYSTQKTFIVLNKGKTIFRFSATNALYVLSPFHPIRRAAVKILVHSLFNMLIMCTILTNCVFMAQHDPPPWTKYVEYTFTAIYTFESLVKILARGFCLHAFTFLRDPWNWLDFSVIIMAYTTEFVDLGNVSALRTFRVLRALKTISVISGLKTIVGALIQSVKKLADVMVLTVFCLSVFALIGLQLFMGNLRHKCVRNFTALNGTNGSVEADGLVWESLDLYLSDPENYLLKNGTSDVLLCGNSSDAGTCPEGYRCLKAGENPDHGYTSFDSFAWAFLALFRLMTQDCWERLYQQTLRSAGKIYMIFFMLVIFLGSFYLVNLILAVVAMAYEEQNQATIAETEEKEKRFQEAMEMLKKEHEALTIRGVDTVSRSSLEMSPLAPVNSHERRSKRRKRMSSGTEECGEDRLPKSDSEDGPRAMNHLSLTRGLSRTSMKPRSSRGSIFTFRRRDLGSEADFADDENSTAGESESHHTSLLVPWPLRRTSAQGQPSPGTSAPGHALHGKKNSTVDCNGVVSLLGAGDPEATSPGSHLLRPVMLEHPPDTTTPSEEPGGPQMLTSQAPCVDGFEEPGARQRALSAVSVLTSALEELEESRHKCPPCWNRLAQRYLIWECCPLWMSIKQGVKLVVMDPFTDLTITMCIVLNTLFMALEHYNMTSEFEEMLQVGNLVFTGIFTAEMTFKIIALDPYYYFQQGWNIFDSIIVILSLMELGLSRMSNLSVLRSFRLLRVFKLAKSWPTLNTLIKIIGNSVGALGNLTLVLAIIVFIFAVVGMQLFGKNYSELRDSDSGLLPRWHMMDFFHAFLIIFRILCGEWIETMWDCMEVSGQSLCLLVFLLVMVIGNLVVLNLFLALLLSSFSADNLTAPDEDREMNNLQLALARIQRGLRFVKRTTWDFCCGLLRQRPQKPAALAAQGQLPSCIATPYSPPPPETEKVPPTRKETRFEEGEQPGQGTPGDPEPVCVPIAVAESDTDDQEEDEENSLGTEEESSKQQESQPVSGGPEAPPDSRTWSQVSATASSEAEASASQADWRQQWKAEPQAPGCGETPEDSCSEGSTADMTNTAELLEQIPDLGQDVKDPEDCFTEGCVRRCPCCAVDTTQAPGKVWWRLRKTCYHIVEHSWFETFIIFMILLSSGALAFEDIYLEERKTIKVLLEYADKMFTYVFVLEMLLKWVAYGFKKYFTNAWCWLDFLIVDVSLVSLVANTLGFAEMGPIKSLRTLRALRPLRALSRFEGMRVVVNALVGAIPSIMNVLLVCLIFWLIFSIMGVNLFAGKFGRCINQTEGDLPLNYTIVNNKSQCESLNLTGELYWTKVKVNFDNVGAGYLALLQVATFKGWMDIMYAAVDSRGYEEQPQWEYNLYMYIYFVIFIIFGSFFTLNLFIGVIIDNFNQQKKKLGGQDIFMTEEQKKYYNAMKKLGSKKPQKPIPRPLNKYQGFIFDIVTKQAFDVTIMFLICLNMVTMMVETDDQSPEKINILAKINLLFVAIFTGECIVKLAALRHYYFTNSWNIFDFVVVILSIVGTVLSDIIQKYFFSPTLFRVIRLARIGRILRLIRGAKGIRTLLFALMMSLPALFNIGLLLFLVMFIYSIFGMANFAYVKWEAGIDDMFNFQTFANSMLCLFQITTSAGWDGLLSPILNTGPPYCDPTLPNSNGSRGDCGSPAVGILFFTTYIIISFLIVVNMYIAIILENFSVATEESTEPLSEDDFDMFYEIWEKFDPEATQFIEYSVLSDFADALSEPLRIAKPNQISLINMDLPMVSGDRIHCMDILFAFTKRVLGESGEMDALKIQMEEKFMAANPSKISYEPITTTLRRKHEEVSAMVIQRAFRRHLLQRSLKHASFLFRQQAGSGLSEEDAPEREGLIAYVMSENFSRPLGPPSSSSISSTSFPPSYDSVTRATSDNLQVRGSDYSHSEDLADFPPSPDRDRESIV
Kind of assay: Whole-cell patch-clamp of INa and ILATE in M3q-DREADD iPS-CMs activated with CNO. It counts as cell-based. Particulars: 100 nM CNO. On the procedure: Control is CNO application to cells with no M3q. Mean±SD % fluorescence change for 20 cells per group; an example photobleaching montage is inset. […] Leftwards shifts in each parameter are precluded by U73122 or by 200 μM diC8-PIP2 in the pipette but are not sensitive to staurosporine or BAPTA. The cells were perfused with an extracellular solution containing (in mM): 130 NaCl, 5 CsCl, 1.2 MgCl2, 1.5 CaCl2), 8 Glucose, 10 HEPES (pH7.4). […] nitrendipine was added to the recording solution to block Ca^2+ flux through Cav channels. Patch pipettes with a resistance of 2.5-4 MQ are filled with a solution containing (in mM): 60 CsCl, 80 CsF, 2 MgCl2, 10 EGTA, 5 Na2ATP, 5 HEPES (pH 7.4). Currents were low pass (Bessel) filtered at 9 kHz and digitized at 50 kHz and were collected from cells with a series resistance <15 MQ; this was compensated by 70%.
Results. Studies are designed to evaluate if hydrolysis of PIP2 modulates Nav1.5 channel currents in cardiomyocytes. To perform these experiments, we used human iPS cardiomyocytes (iCell^2 iPS-CMs) from Fuji-Film Cellular Dynamics. These iPS-CMs are a valuable model system for human cardiomyocytes that retain many of the key characteristics of the native cells. Here, we transfected the iPS-CMs to express the Gαq-coupled M3q Designer Receptors Exclusively Activated by Designer Drugs (DREADD) receptor. We use a magnetic transfection system from Oz Biosciences that we have previously employed with cardiomyocytes. First, we tested the efficacy of M3q to hydrolyze PIP2 in our model system. To accomplish this, we studied uncoupling of the PIP2 biosensor iRFP-PHPLCδ1 from the plasma membrane in response to chemogenic activation of M3q by 100 nM clozapine N-oxide (CNO, Tocris Biosciences).
These findings are consistent with our prior observations and the work using optogenetically activated PI-phosphatases to deplete PIP2 in HEK293 cells […] Xenopus laevis oocytes. […] Having established a time frame for PIP2 hydrolysis in our system, we used whole-cell patch-clamp to study INa in paired experiments, before and after chemogenic activation of M3q. Applying 100 nM CNO evoked a leftward shift in the current-voltage (I-V) relationship of INa such that peak INa shifted from −25 to −35 mV. At −35 mV, the peak current-density increased from −220±5 pA/pF to −266±4 pA/pF at −35 mV (n=8, P<0.001, paired Student's t-test). […] However, in contrast to our findings with Nav1.4, activating M3q signaling also left-shifted the steady state inactivation curve of Nav1.5 (V½SSI), from −81.4±2 to −89.7±2 mV (n=8, P<0.01, paired t-test; FIGS. 2C, 2D). These studies indicate that Nav1.5 channels are regulated by hydrolysis of PIP2 and that there are distinctions between PIP2 regulation of Nav1.5 and Nav1.4.
Next, we studied the effect of M3q-activation on ILATE by recording currents evoked by a 400 ms depolarizing pulse to −20 mV before and during receptor activation. The magnitude of ILATE represents the mean current 150-200 ms after peak INa and is expressed as a percentage of peak INa. […] The effects of M3q activation on V½ACT, V½SSI, and the development of ILATE were not affected by staurosporine (1 μM, 1-hour preincubation) or BAPTA (10 mM in the recording pipette), making a role for IP3 or DAG unlikely. […] Similar data were obtained for Nav1.5 expressed with Navβ1 and the M3q-DREADD receptor in HEK293T cells. This experiment validates that the findings are not restricted to a particular model system or cellular environment.
Measure modulation in INa and ILATE by endogenous Gαq signaling. Like native cardiomyocytes, human iPS-CMs express AT1 receptors. Here, the effects of Ang II (Tocris) on Nav1.5 channel function in iPS-CMs is tested using four whole-cell patch-clamp recording protocols. […]

T1 sequence (Q14524 whole entry): as above

For `CCCCCCCC(=O)OC[C@H](COP(=O)(O)O[C@@H]1[C@H](O)[C@H](O)[C@@H](OP(=O)(O)O)[C@H](OP(=O)(O)O)[C@H]1O)OC(=O)CCCCCCC` [diC8-PIP2], at WT-Nav1.5, the “effect on ILATE increase when PIP2 is dephosphorylated” value is “opposed”. Moreover, in assay [1] (200 μM diC8-PIP2 in pipette), the “effect on CNO-evoked increase in ILATE” value is “precluded”; the “effect on CNO-evoked leftwards shifts in V½ACT and V½SSI” value is recorded as “precluded”. For the same molecule, the “effect on CNO (M3q activation) effects on V½ACT, V½SSI and ILATE” value in assay [1] (staurosporine 1 μM 1-hour preincubation, BAPTA 10 mM in pipette, U73122 5 μM, diC8-PIP2 200 μM in pipette) is listed as “blocked; also recorded: abolished”.
